Reference: patent US9243037B2, “Gramicidin a mutants that function as antibiotics with improved solubility and reduced toxicity” (Trustees of Boston College, priority 2011, dated 2016)
Entries after “also recorded” stand apart in the source; their conditions may differ. Where two headings read alike, the source gives them in different places. Marks after values point to notes of the source that are not given here.

Legend:
[1] = Peptide binding onto membranes (Trp fluorescence); conditions: negatively charged POPC/POPG vesicles; in words
[2] = Proton leakage from EYPC vesicles (HPTS); assay type: biochemical; conditions: peptide premixed with lipids; in words
Description: To confirm that lack of binding causes loss of membrane activity, we decided to premix the peptides and lipids in organic solvent and then dried out the mixture before hydration. Then, the peptides would be trapped into the bound form upon vesicle formation. The peptides distribution was determined by monitoring Trp fluorescence and the channel activity was determined by monitoring the proton leakage from LUVs using a pH sensitive fluorescence dye HPTS. Peptides 10, 12, 14K and 10, 12, 14 M gA were chosen to mix with neutral lipids EYPC.

[3] = Peptide binding onto membranes (Trp fluorescence); conditions: neutral POPC vesicles; in words
[4] = tested on: human red blood cells (hRBCs); assay: K+ leakage from hRBCs (flame atomic emission); assay type: cell-based
[5] = tested on: human red blood cells (hRBCs); assay: Haemoglobin release from human red blood cells; assay type: cell-based; conditions: red cells of human
Procedure, shortened: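 Washed fresh human RBCs at 1% (v/v) in PBS were incubated with 2-fold serial peptide dilutions (DMSO vehicle) for 1 h at 37 °C, then centrifuged. Haemoglobin in the supernatant was read at 415 nm. % hemolysis was taken relative to DMSO blank and 1% Triton X-100 complete lysis.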

[6] = tested on: Streptococcus pyogenes (ATCC 19615)
[7] = Trp absorbance @ 280 nm; 10 mM PBS, pH 7.0, 1% DMSO; values taken from ref; cited from earlier work
[8] = Peptide distribution in EYPC LUVs by Trp fluorescence; assay type: binding; conditions: peptide added to LUVs; in words
Description: The peptides distribution was determined by monitoring Trp fluorescence and the channel activity was determined by monitoring the proton leakage from LUVs using a pH sensitive fluorescence dye HPTS. […]

[9] = Tb3+ leakage from liposomes, lipid not specified; assay type: biochemical; conditions: at peptide concentrations causing complete K+ release; in words
[10] = tested on: Staphylococcus aureus (ATCC 6538)
[11] = K+ release from liposomes, lipid not specified; assay type: biochemical; conditions: in words
Description: With the D-Lys residues incorporated towards the C-terminus, the gA peptide analogs described herein display amphipathic sequences. Since many amphipathic peptides are known to cause membrane damage through a detergent-like mechanism instead of forming specific channels,[19] it was further examined whether it is the case with the gA peptide analogs provided herein. Toward this end, the ion selectivity of gA-3, 4, and 5 was assessed by using liposomes encapsulating K+ and Tb3+ respectively. […] The wild type like channel structure of the D-Lys mutants is further supported by the fact that gA-5 and gA-WT share similar signatures in their circular dichroism spectra (FIG. 11). This exclusive leakage of monovalent cations presents a great advantage of the gA analog peptides described herein in comparison to the majority of AMPs, which often cause catastrophic membrane collapse to release all bacterial cellular content, leading to potential complications of over-stimulated immune response.
The K+ leakage from liposomes was determined by a potassium ion selective electrode (K-ISE, Cole-Parmer, Vernon Hills, Ill.). The electrode was calibrated each day before experiments. A liposome solution in Buffer A (2 mL, 500 μM POPC or POPC/POPG⊃10 mM HEPES, 150 mM KCl, pH 7.0) was stirred at constant speed and peptide at various concentration (1 μL in DMSO) was added accumulatively. Three minutes after each peptide addition, the K+ concentration was measured and reported as the K-ISE potential. At the end of each experiment, gA-WT stock (1 μL, 1 mM) was added to induce 100% K+ leakage. The potential reported by the K-ISE was plotted against peptide concentration after the background noise (caused by DMSO addition) was subtracted and normalized to 0-100%.

[12] = tested on: Bacillus subtilis (ATCC 663)

In the case of `CC(C)C[C@@H](NC(=O)[C@H](C)NC(=O)CNC(=O)[C@@H](NC=O)C(C)C)C(=O)N[C@@H](C)C(=O)N[C@@H](C(=O)N[C@H](C(=O)N[C@@H](C(=O)N[C@@H](Cc1c[nH]c2ccccc12)C(=O)N[C@H](CCCCN)C(=O)N[C@@H](Cc1c[nH]c2ccccc12)C(=O)N[C@H](CCCCN)C(=O)N[C@@H](Cc1c[nH]c2ccccc12)C(=O)N[C@H](CCCCN)C(=O)N[C@@H](Cc1c[nH]c2ccccc12)C(=O)NCCO)C(C)C)C(C)C)C(C)C` (racemic) [gA-5, formyl-V-G-A-dL-A-dV-V-dV-W-dK-W-dK-W-dK-W-NHCH2CH2OH], the “apparent dissociation constant (Kd) / binding” value [1] was “dropped by a marginal four fold”, the “proton leakage from EYPC LUVs” value [2] was “caused proton leakage” and the “apparent dissociation constant (Kd) / binding” value [3] was “no detectable binding”. The “KC50 (50% K+ ion leakage relative to 1% TritonX-100)” value [4] was >100 µM, the “peptide concentration for 50% K+ ion leakage, fold greater than wild-type Gramicidin A” value [4] was “over 10^6 fold” and the “HC50 (50% haemoglobin leakage relative to 1% TritonX-100)” value [5] was >100 µM. For the same compound, the “MICs S. Pyogenes” value ([6]; ATCC 19615) was 0.62 µM, the “MIC relative to wild-type Gramicidin A” value ([6]; S. Pyogenes) was “equivalent to or ˜2-fold higher” and the antibacterial activity ([6]; S. pyogenes, in words) was “highly potent”. The “Sat. Conc, Lys series” value [7] was 72 µM, the “binding to EYPC LUVs” value [8] was “neither peptides bound to EYPC LUVs upon addition” and the “Tb3+ leakage from LUVs” value [9] was “essentially no Tb3+ leakage; also recorded: little to no difference”. The “MICs S. Aureus” value ([10]; ATCC 6538) was > 10 µM, the “MIC relative to wild-type Gramicidin A” value ([10]; S. Aureus) was “much higher MIC” and the “MICs S. Aureus” value ([10]; Table 2, standard micro-dilution) was >10 ^[e] μM. The “K+ release from LUVs” value [11] was “potent activity in K+ release; also recorded: complete K^+ leakage”, the “MICs B. Subtilius” value ([12]; ATCC 663) was 5 µM and the “MIC relative to wild-type Gramicidin A” value ([12]; B. subtilis) was “equivalent to or ˜2-fold higher”. The antibacterial activity ([12]; B. subtilis, in words) was “highly potent”.
